Experiment: xn = mol fraction of the nth substance listed
Settings: Liquid, Vibrating tube method

CCOC(=O)CC [ethyl propanoate] + CCCCCCC
Settings | mass density [kg/m3]
288.15 K, x1 = 0.0524 | 695.91
288.15 K, x1 = 0.0988 | 703.07
288.15 K, x1 = 0.1463 | 710.63
288.15 K, x1 = 0.1941 | 718.6
288.15 K, x1 = 0.2514 | 728.31
288.15 K, x1 = 0.3018 | 737.02
288.15 K, x1 = 0.3473 | 745.24
288.15 K, x1 = 0.4004 | 755.32
288.15 K, x1 = 0.4483 | 764.49
288.15 K, x1 = 0.5023 | 775.33
288.15 K, x1 = 0.5493 | 785.04
288.15 K, x1 = 0.6523 | 807.55
288.15 K, x1 = 0.7155 | 821.91
288.15 K, x1 = 0.7532 | 830.95
288.15 K, x1 = 0.7965 | 841.54
288.15 K, x1 = 0.8566 | 856.59
288.15 K, x1 = 0.9037 | 868.82
288.15 K, x1 = 0.9502 | 881.54
288.15 K, x1 = 1 | 895.58
298.15 K, x1 = 0.0502 | 687.02
298.15 K, x1 = 0.0966 | 693.85
298.15 K, x1 = 0.1618 | 704.16
298.15 K, x1 = 0.24 | 717.15
298.15 K, x1 = 0.3102 | 729.24
298.15 K, x1 = 0.401 | 745.76
298.15 K, x1 = 0.4502 | 755.12
298.15 K, x1 = 0.5047 | 765.87
298.15 K, x1 = 0.598 | 785.24
298.15 K, x1 = 0.6478 | 796.11
298.15 K, x1 = 0.6968 | 807.1
298.15 K, x1 = 0.7456 | 818.46
298.15 K, x1 = 0.7933 | 829.93
298.15 K, x1 = 0.8547 | 845.07
298.15 K, x1 = 0.9029 | 857.64
298.15 K, x1 = 0.952 | 870.77
298.15 K, x1 = 1 | 884.15
308.15 K, x1 = 0.0489 | 677.99
308.15 K, x1 = 0.0972 | 685.13
308.15 K, x1 = 0.1622 | 695.08
308.15 K, x1 = 0.2109 | 702.86
308.15 K, x1 = 0.2409 | 707.93
308.15 K, x1 = 0.3084 | 719.36
308.15 K, x1 = 0.352 | 727.08
308.15 K, x1 = 0.4029 | 736.28
308.15 K, x1 = 0.44 | 743.31
308.15 K, x1 = 0.5033 | 755.53
308.15 K, x1 = 0.5515 | 765.29
308.15 K, x1 = 0.6049 | 776.34
308.15 K, x1 = 0.6546 | 787.12
308.15 K, x1 = 0.6957 | 796.27
308.15 K, x1 = 0.7472 | 808.1
308.15 K, x1 = 0.8001 | 820.72
308.15 K, x1 = 0.8549 | 834.09
308.15 K, x1 = 0.8932 | 843.97
308.15 K, x1 = 0.949 | 858.62
308.15 K, x1 = 1 | 872.62
318.15 K, x1 = 0.0535 | 669.87
318.15 K, x1 = 0.0979 | 676.31
318.15 K, x1 = 0.1459 | 683.47
318.15 K, x1 = 0.2045 | 692.71
318.15 K, x1 = 0.262 | 702.04
318.15 K, x1 = 0.3009 | 708.59
318.15 K, x1 = 0.3494 | 717.01
318.15 K, x1 = 0.4057 | 727.08
318.15 K, x1 = 0.4487 | 735.05
318.15 K, x1 = 0.5052 | 745.9
318.15 K, x1 = 0.552 | 755.16
318.15 K, x1 = 0.5969 | 764.38
318.15 K, x1 = 0.6529 | 776.27
318.15 K, x1 = 0.7022 | 787.15
318.15 K, x1 = 0.7467 | 797.21
318.15 K, x1 = 0.7935 | 808.2
318.15 K, x1 = 0.8452 | 820.6
318.15 K, x1 = 0.8929 | 832.6
318.15 K, x1 = 0.9484 | 847.05
318.15 K, x1 = 1 | 861.08
328.15 K, x1 = 0.0528 | 660.86
328.15 K, x1 = 0.1065 | 668.58
328.15 K, x1 = 0.1619 | 676.84
328.15 K, x1 = 0.2123 | 684.53
328.15 K, x1 = 0.2511 | 690.83
328.15 K, x1 = 0.3081 | 700.22
328.15 K, x1 = 0.3519 | 707.73
328.15 K, x1 = 0.4084 | 717.71
328.15 K, x1 = 0.4478 | 724.83
328.15 K, x1 = 0.5074 | 736.13
328.15 K, x1 = 0.5522 | 744.86
328.15 K, x1 = 0.6033 | 755.17
328.15 K, x1 = 0.6454 | 764.1
328.15 K, x1 = 0.7023 | 776.34
328.15 K, x1 = 0.7443 | 785.77
328.15 K, x1 = 0.7989 | 798.4
328.15 K, x1 = 0.8593 | 812.97
328.15 K, x1 = 0.8983 | 822.61
328.15 K, x1 = 0.9494 | 835.87
328.15 K, x1 = 1 | 849.41

CCOC(=O)CC [ethyl propanoate] + CCCCCCCCC
Settings | mass density [kg/m3]
288.15 K, x1 = 0.0545 | 727.07
288.15 K, x1 = 0.1159 | 733.36
288.15 K, x1 = 0.1434 | 736.52
288.15 K, x1 = 0.2218 | 745.49
288.15 K, x1 = 0.2412 | 747.88
288.15 K, x1 = 0.3158 | 757.46
288.15 K, x1 = 0.3579 | 763.17
288.15 K, x1 = 0.4121 | 770.89
288.15 K, x1 = 0.462 | 778.51
288.15 K, x1 = 0.5039 | 785.25
288.15 K, x1 = 0.5537 | 793.58
288.15 K, x1 = 0.6035 | 802.47
288.15 K, x1 = 0.6328 | 807.91
288.15 K, x1 = 0.6935 | 819.81
288.15 K, x1 = 0.7463 | 830.79
288.15 K, x1 = 0.7907 | 840.69
288.15 K, x1 = 0.895 | 866.09
288.15 K, x1 = 0.9488 | 880.62
288.15 K, x1 = 1 | 895.58
298.15 K, x1 = 0.0538 | 718.94
298.15 K, x1 = 0.0883 | 722.45
298.15 K, x1 = 0.142 | 728.05
298.15 K, x1 = 0.2152 | 736.31
298.15 K, x1 = 0.3007 | 746.83
298.15 K, x1 = 0.3555 | 754.11
298.15 K, x1 = 0.4078 | 761.4
298.15 K, x1 = 0.4592 | 769.02
298.15 K, x1 = 0.4988 | 775.19
298.15 K, x1 = 0.5511 | 783.72
298.15 K, x1 = 0.5917 | 790.84
298.15 K, x1 = 0.6562 | 802.56
298.15 K, x1 = 0.6962 | 810.32
298.15 K, x1 = 0.741 | 819.48
298.15 K, x1 = 0.7883 | 829.57
298.15 K, x1 = 0.8559 | 845.47
298.15 K, x1 = 0.9034 | 857.27
298.15 K, x1 = 0.9521 | 870.29
298.15 K, x1 = 1 | 884.15
308.15 K, x1 = 0.0558 | 711.17
308.15 K, x1 = 0.089 | 714.43
308.15 K, x1 = 0.1555 | 721.34
308.15 K, x1 = 0.2171 | 728.16
308.15 K, x1 = 0.2586 | 733.03
308.15 K, x1 = 0.3081 | 739.12
308.15 K, x1 = 0.3829 | 748.94
308.15 K, x1 = 0.4013 | 751.5
308.15 K, x1 = 0.4533 | 759.02
308.15 K, x1 = 0.5068 | 767.11
308.15 K, x1 = 0.5509 | 774.2
308.15 K, x1 = 0.6035 | 783.03
308.15 K, x1 = 0.6525 | 791.81
308.15 K, x1 = 0.6998 | 800.82
308.15 K, x1 = 0.7473 | 810.39
308.15 K, x1 = 0.794 | 820.41
308.15 K, x1 = 0.8533 | 833.93
308.15 K, x1 = 0.9006 | 845.51
308.15 K, x1 = 0.9506 | 858.66
308.15 K, x1 = 1 | 872.62
318.15 K, x1 = 0.0516 | 702.64
318.15 K, x1 = 0.0909 | 706.6
318.15 K, x1 = 0.1617 | 713.7
318.15 K, x1 = 0.219 | 719.88
318.15 K, x1 = 0.2413 | 722.49
318.15 K, x1 = 0.2923 | 728.44
318.15 K, x1 = 0.3518 | 735.96
318.15 K, x1 = 0.4062 | 743.15
318.15 K, x1 = 0.4541 | 749.92
318.15 K, x1 = 0.5056 | 757.57
318.15 K, x1 = 0.556 | 765.57
318.15 K, x1 = 0.6001 | 772.83
318.15 K, x1 = 0.6514 | 781.78
318.15 K, x1 = 0.6939 | 789.72
318.15 K, x1 = 0.7552 | 801.69
318.15 K, x1 = 0.7988 | 810.87
318.15 K, x1 = 0.8559 | 823.94
318.15 K, x1 = 0.9062 | 835.91
318.15 K, x1 = 0.9524 | 847.95
318.15 K, x1 = 1 | 861.08
328.15 K, x1 = 0.0514 | 694.83
328.15 K, x1 = 0.0965 | 699.04
328.15 K, x1 = 0.1572 | 705.05
328.15 K, x1 = 0.2061 | 710.14
328.15 K, x1 = 0.2627 | 716.42
328.15 K, x1 = 0.3163 | 722.76
328.15 K, x1 = 0.3619 | 728.36
328.15 K, x1 = 0.4059 | 734.14
328.15 K, x1 = 0.4602 | 741.6
328.15 K, x1 = 0.5053 | 748.09
328.15 K, x1 = 0.5543 | 755.65
328.15 K, x1 = 0.6024 | 763.42
328.15 K, x1 = 0.6525 | 772.01
328.15 K, x1 = 0.6996 | 780.61
328.15 K, x1 = 0.7535 | 791.02
328.15 K, x1 = 0.8019 | 801
328.15 K, x1 = 0.8606 | 813.96
328.15 K, x1 = 0.8933 | 821.83
328.15 K, x1 = 0.9504 | 836
328.15 K, x1 = 1 | 849.41
